Experiment [1] has as its system JAK1/TYK2 pSTAT5 (Tyr694/699) in THP-1 cell line. The experiment in a line: IFNa-stimulated JAK1/TYK2 pSTAT5 (Tyr694/699) inhibition cellular assay, AlphaLISA. It is filed as cell-based. As to conditions: Homo sapiens; THP-1 cells, IFNa-stimulated, AlphaLISA (Assay B); read-out: Cellular_THP1_IFNa-pSTATS_TYK2. The procedure, abridged: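 THP-1, 2e4 cells/well, HBSS; cpd 1 h 37 °C (10000–0.04 nM final, 6-fold, 8 pt); IFNa 100 ng/mL added, 30 min; lyse, freeze −80 °C; pSTAT5 AlphaLISA, 615 nm; 4PL IC50, bottom fixed 0, slope −1.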
In general terms: Bead proximity is the source of the signal in Alpha formats.

A further experiment addresses T1, TYK2 JH2 (Homo sapiens, UniProt P29597).
T1 construct: purchased DiscoverX (KINOMEscan KdELECT service); host or cells: E. coli BL21-derived (T7 phage display) or HEK-293
The experiment in a line: TYK2 JH2 binding assay (KINOMEscan KdELECT competitive binding). As to conditions: TYK2 JH2 domain, KINOMEscan KdELECT (Assay A); read-out: Biochemical TYK2_DiscoverX_JH2_BND_Kd. The gist of the method:
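Competition binding, KdELECT format. Kinase (phage-tagged, E. coli BL21-derived host; or HEK-293, DNA-tagged) + ligand-coated streptavidin beads + cpd, 1 h RT, final DMSO 0.9%. Wash, elute 30 min with 0.5 μM non-biotinylated ligand; qPCR readout. Kd: 11-pt, 3-fold series.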

Each structure is given as a SMILES string. Where only a bound is given, the exact number is not on record here.

T1 sequence (P29597 589-875 limits assumed): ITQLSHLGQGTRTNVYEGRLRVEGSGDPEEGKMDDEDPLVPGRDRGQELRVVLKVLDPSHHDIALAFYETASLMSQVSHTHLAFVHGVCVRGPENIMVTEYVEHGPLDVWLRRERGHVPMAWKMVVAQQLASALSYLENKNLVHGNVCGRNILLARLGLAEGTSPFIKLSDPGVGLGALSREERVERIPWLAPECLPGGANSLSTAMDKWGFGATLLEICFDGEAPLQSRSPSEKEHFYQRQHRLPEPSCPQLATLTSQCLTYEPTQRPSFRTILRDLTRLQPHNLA

With `CNc1ncc(C#Cc2ccc3nc4n(c3c2)CCOC4)c2cc(NC(=O)C3CC3)ncc12` [Example 720, N-(5-((3,4-dihydro-1H-benzo[4,5]imidazo[2,1-c][1,4]oxazin-7-yl)ethynyl)-8-(methylamino)-2,7-naphthyridin-3-yl)cyclopropanecarboxamide], the IC50 in experiment [1] is ≤ 500 nM. On TYK2 JH2, the Kd was ≤ 100 nM.

On to `CNc1ncc(C#Cc2cc3c(F)cccn3n2)c2cc(NC(=O)C3CC3)ncc12` [Example 721, N-(5-((4-fluoropyrazolo[1,5-a]pyridin-2-yl)ethynyl)-8-(methylamino)-2,7-naphthyridin-3-yl)cyclopropanecarboxamide], for which, in experiment [1], the IC50 was ≤ 500 nM. Moreover, the Kd at TYK2 JH2 is ≤ 100 nM.

On to `[2H]C([2H])([2H])Oc1ccc(C#Cc2cnc(NC)c3cnc(NC(=O)C4CC4)cc23)nc1` [Example 722, N-(5-((5-(methoxy-d3)pyridin-2-yl)ethynyl)-8-(methylamino)-2,7-naphthyridin-3-yl)cyclopropanecarboxamide], for which the IC50 in experiment [1] is ≤ 500 nM. Also, at TYK2 JH2, the Kd is ≤ 100 nM.

`CNc1ncc(C#Cc2ccc3c(cnn3C(F)F)c2)c2cc(NC(=O)C3CC3)ncc12` [Example 723, N-(5-((1-(difluoromethyl)-1H-indazol-5-yl)ethynyl)-8-(methylamino)-2,7-naphthyridin-3-yl)cyclopropanecarboxamide]: the IC50 in experiment [1] was ≤ 500 nM. In addition, the Kd at TYK2 JH2 is ≤ 100 nM.

For the compound `CNc1ncc(C#Cc2ccncc2CCO)c2cc(NC(=O)C3CC3)ncc12` [Example 724, N-(5-((3-(2-hydroxyethyl)pyridin-4-yl)ethynyl)-8-(methylamino)-2,7-naphthyridin-3-yl)cyclopropanecarboxamide], in experiment [1], the IC50 is ≤ 500 nM. On TYK2 JH2, the Kd is ≤ 100 nM.

For `CNc1ncc(C#Cc2ccc3nc(COC)sc3c2)c2cc(NC(=O)C3CC3)ncc12` [Example 725, N-(5-((2-(methoxymethyl)benzo[d]thiazol-6-yl)ethynyl)-8-(methylamino)-2,7-naphthyridin-3-yl)cyclopropanecarboxamide], the IC50 in experiment [1] was ≤ 500 nM. Further, the Kd at TYK2 JH2 was ≤ 100 nM.

For `CNc1ncc(C#Cc2ccc(N3CCC3)cn2)c2cc(NC(=O)C3CC3)ncc12` [Example 726, N-(5-((5-(azetidin-1-yl)pyridin-2-yl)ethynyl)-8-(methylamino)-2,7-naphthyridin-3-yl)cyclopropanecarboxamide], the IC50 in experiment [1] was ≤ 500 nM. Also, the Kd on TYK2 JH2 was ≤ 100 nM.

In the case of `CNc1ncc(C#Cc2ccc(N3CCC3COC)cn2)c2cc(NC(=O)C3CC3)ncc12` (stereo not shown) [Example 727, N-(5-((5-(2-(methoxymethyl)azetidin-1-yl)pyridin-2-yl)ethynyl)-8-(methylamino)-2,7-naphthyridin-3-yl)cyclopropanecarboxamide], the IC50 in experiment [1] was ≤ 500 nM. In addition, on TYK2 JH2, the Kd was ≤ 100 nM.

With `CNc1ncc(C#Cc2ccc(CN3CCOCC3)cn2)c2cc(NC(=O)C3CC3)ncc12` [Example 728, N-(8-(methylamino)-5-((5-(morpholinomethyl)pyridin-2-yl)ethynyl)-2,7-naphthyridin-3-yl)cyclopropanecarboxamide], the IC50 in experiment [1] is ≤ 500 nM. Also, the Kd at TYK2 JH2 is ≤ 100 nM.

As to `CNc1ncc(C#Cc2ccc(C(C)(F)F)cn2)c2cc(NC(=O)C3CC3)ncc12` [Example 729, N-(5-((5-(1,1-difluoroethyl)pyridin-2-yl)ethynyl)-8-(methylamino)-2,7-naphthyridin-3-yl)cyclopropanecarboxamide], the IC50 in experiment [1] was ≤ 500 nM. Also, the Kd at TYK2 JH2 was ≤ 100 nM.

For `CNc1ncc(C#Cc2cc(C#N)c(OC)cn2)c2cc(NC(=O)C3CC3)ncc12` [Example 730, N-(5-((4-cyano-5-methoxypyridin-2-yl)ethynyl)-8-(methylamino)-2,7-naphthyridin-3-yl)cyclopropanecarboxamide], the IC50 in experiment [1] is > 500 nM. Besides, the Kd on TYK2 JH2 was ≤ 100 nM.

Turning to `CNc1ncc(C#Cc2ccc(OCC(C)(C)F)cc2)c2cc(NC(=O)C3CC3)ncc12` [Example 731, N-(5-((4-(2-fluoro-2-methylpropoxy)phenyl)ethynyl)-8-(methylamino)-2,7-naphthyridin-3-yl)cyclopropanecarboxamide], in experiment [1], the IC50 is > 500 nM. In addition, the Kd on TYK2 JH2 was ≤ 100 nM.

As for `CNc1ncc(C#Cc2ccc(OCF)cn2)c2cc(NC(=O)C3CC3)ncc12` [Example 732, N-(5-((5-(fluoromethoxy)pyridin-2-yl)ethynyl)-8-(methylamino)-2,7-naphthyridin-3-yl)cyclopropanecarboxamide], the IC50 in experiment [1] is ≤ 500 nM. In addition, the Kd on TYK2 JH2 is ≤ 100 nM.

Regarding `CNc1ncc(C#Cc2ccc(N3CC4CN(C)CC(C3)O4)cn2)c2cc(NC(=O)C3CC3)ncc12` [Example 733, N-(5-((5-(7-methyl-9-oxa-3,7-diazabicyclo[3.3.1]nonan-3-yl)pyridin-2-yl)ethynyl)-8-(methylamino)-2,7-naphthyridin-3-yl)cyclopropanecarboxamide], the IC50 in experiment [1] was ≤ 500 nM. In addition, on TYK2 JH2, the Kd is ≤ 100 nM.

With `CNc1ncc(C#Cc2ccc(N3CC4CN(C)CC(C3)O4)cc2)c2cc(NC(=O)C3CC3)ncc12` [Example 734, N-(5-((4-(7-methyl-9-oxa-3,7-diazabicyclo[3.3.1]nonan-3-yl)phenyl)ethynyl)-8-(methylamino)-2,7-naphthyridin-3-yl)cyclopropanecarboxamide], the IC50 in experiment [1] was ≤ 500 nM. The Kd on TYK2 JH2 is ≤ 100 nM.

`CNc1ncc(C#Cc2ccc(OC3CN(C(C)=O)C3)cn2)c2cc(NC(=O)C3CC3)ncc12` [Example 735, N-(5-((5-((1-acetylazetidin-3-yl)oxy)pyridin-2-yl)ethynyl)-8-(methylamino)-2,7-naphthyridin-3-yl)cyclopropanecarboxamide]: in experiment [1], the IC50 was ≤ 500 nM. Moreover, the Kd on TYK2 JH2 is ≤ 100 nM.

Regarding `CNc1ncc(C#Cc2ccc(OC3CN(C(C)=O)C3)cn2)c2cc(NC(=O)C3(F)CC3)ncc12` [Example 736, N-(5-((5-((1-acetylazetidin-3-yl)oxy)pyridin-2-yl)ethynyl)-8-(methylamino)-2,7-naphthyridin-3-yl)-1-fluorocyclopropane-1-carboxamide], the IC50 in experiment [1] is ≤ 500 nM. Moreover, the Kd on TYK2 JH2 was ≤ 100 nM.

As for `CNc1ncc(C#Cc2ccc(NC(=O)COC)cc2)c2cc(NC(=O)C3CC3)ncc12` [Example 737, N-(5-((4-(2-methoxyacetamido)phenyl)ethynyl)-8-(methylamino)-2,7-naphthyridin-3-yl)cyclopropanecarboxamide], the IC50 in experiment [1] was ≤ 500 nM. In addition, the Kd on TYK2 JH2 is ≤ 100 nM.

For the compound `CNc1ncc(C#Cc2ccc(P(C)(C)=O)cn2)c2cc(NC(=O)C3CC3)ncc12` [Example 738, N-(5-((5-(dimethylphosphoryl)pyridin-2-yl)ethynyl)-8-(methylamino)-2,7-naphthyridin-3-yl)cyclopropanecarboxamide], the IC50 in experiment [1] is ≤ 500 nM. Further, the Kd on TYK2 JH2 is ≤ 100 nM.

For `CNc1ncc(C#Cc2ccc3nc(C(F)F)n(C)c3c2)c2cc(NC(=O)C3CC3)ncc12` [Example 739, N-(5-((2-(difluoromethyl)-1-methyl-1H-benzo[d]imidazol-6-yl)ethynyl)-8-(methylamino)-2,7-naphthyridin-3-yl)cyclopropanecarboxamide], in experiment [1], the IC50 is ≤ 500 nM. Further, the Kd on TYK2 JH2 was ≤ 100 nM.

For the compound `CNc1ncc(C#Cc2ccc3nc(C4CC4)n(C)c3c2)c2cc(NC(=O)C3CC3)ncc12` [Example 740, N-(5-((2-cyclopropyl-1-methyl-1H-benzo[d]imidazol-6-yl)ethynyl)-8-(methylamino)-2,7-naphthyridin-3-yl)cyclopropanecarboxamide], the IC50 in experiment [1] is ≤ 500 nM. The Kd on TYK2 JH2 was ≤ 100 nM.

Turning to `CNc1ncc(C#Cc2ccc(OC[C@H]3COCCO3)cc2)c2cc(NC(=O)C3CC3)ncc12` [Example 741, (R)—N-(5-((4-((1,4-dioxan-2-yl)methoxy)phenyl)ethynyl)-8-(methylamino)-2,7-naphthyridin-3-yl)cyclopropanecarboxamide], in experiment [1], the IC50 was ≤ 500 nM. Besides, the Kd on TYK2 JH2 was ≤ 100 nM.

Consider `CNc1ncc(C#Cc2ccc(OC)cn2)c2cc(NC(=O)[C@H]3C[C@H]3C)ncc12` [Example 742, (1S,2R)—N-(5-((5-methoxypyridin-2-yl)ethynyl)-8-(methylamino)-2,7-naphthyridin-3-yl)-2-methylcyclopropane-1-carboxamide], for which the IC50 in experiment [1] was ≤ 500 nM. Moreover, the Kd at TYK2 JH2 is ≤ 100 nM.

Regarding `CNc1ncc(C#Cc2ccc(OC)cn2)c2cc(NC(=O)C3(F)CC3)ncc12` [Example 743, 1-fluoro-N-(5-((5-methoxypyridin-2-yl)ethynyl)-8-(methylamino)-2,7-naphthyridin-3-yl)cyclopropane-1-carboxamide], the IC50 in experiment [1] was ≤ 500 nM. Moreover, on TYK2 JH2, the Kd was ≤ 100 nM.

`CNc1ncc(C#Cc2ccc(OC)cn2)c2cc(NC(=O)C3CC3C(F)F)ncc12` [Example 744, (1R,18)-2-(difluoromethyl)-N-(5-((5-methoxypyridin-2-yl)ethynyl)-8-(methylamino)-2,7-naphthyridin-3-yl)cyclopropane-1-carboxamide]: the IC50 in experiment [1] is ≤ 500 nM. For the same compound, the Kd at TYK2 JH2 is ≤ 100 nM.

On to `CNc1ncc(C#Cc2ccc3c(C)noc3c2)c2cc(NC(=O)C3CC3)ncc12` [Example 748, N-(8-(methylamino)-5-((3-methylbenzo[d]isoxazol-6-yl)ethynyl)-2,7-naphthyridin-3-yl)cyclopropanecarboxamide], for which the IC50 in experiment [1] is ≤ 500 nM. For the same compound, the Kd at TYK2 JH2 was ≤ 100 nM.

The values above are taken from patent US20240025906A1 (NEURON23, INC., priority 2022, published 2024).
